Test results: patent US9708314B2, “Heterocyclic amide compound” (NISSAN CHEMICAL INDUSTRIES, LTD., priority 2013, dated 2017)

Tests used:
Format in all cases: in vivo
Veronica persica = assay: Test Example 4: herbicidal effect by application to foliage (diluvial soil, plastic box); conditions: for R: herbicidal effect on Veronica persica: application to foliage, application herbicide amount 320 g/ha
Procedure, shortened: (§1)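 Greenhouse plants (25° C. to 30° C., 14 d, diluvial soil) receive a foliar spray of water-diluted emulsifiable formulation at defined g/ha. Grading after 3 weeks uses a six-step herbicidal-ratio scale, with 4 covering 70% to <90% and 1 covering 5% to <20%.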

Stellaria media = assay: as above; conditions: for P: herbicidal effect on Stellaria media: application to foliage, application herbicide amount 320 g/ha
Procedure, shortened: as §1

Setaria viridis = assay: as above; conditions: for G: herbicidal effect on Setaria viridis: application to foliage, application herbicide amount 320 g/ha
Procedure, shortened: as §1

Lolium multiflorum Lam. = assay: as above; conditions: for K: herbicidal effect on Lolium multiflorum Lam.: application to foliage, application herbicide amount 320 g/ha
Procedure, shortened: as §1

Digitaria ciliaris = assay: as above; conditions: for F: herbicidal effect on Digitaria ciliaris: application to foliage, application herbicide amount 320 g/ha
Procedure, shortened: as §1

Abutilon theophrasti = assay: as above; conditions: for M: herbicidal effect on Abutilon theophrasti: application to foliage, application herbicide amount 320 g/ha
Procedure, shortened: as §1

Chenopodium album = assay: as above; conditions: for O: herbicidal effect on Chenopodium album: application to foliage, application herbicide amount 320 g/ha
Procedure, shortened: as §1

Apera spica-venti. = assay: as above; conditions: for L: herbicidal effect on Apera spica-venti.: application to foliage, application herbicide amount 320 g/ha
Procedure, shortened: as §1

Galium spurium = assay: as above; conditions: for Q: herbicidal effect on Galium spurium: application to foliage, application herbicide amount 320 g/ha
Procedure, shortened: as §1

Amaranthus retroflexus = assay: as above; conditions: for N: herbicidal effect on Amaranthus retroflexus: application to foliage, application herbicide amount 320 g/ha
Procedure, shortened: as §1

[1] = tested on: Echinochloa crus-galli var. crus-galli; assay: as above; conditions: for H: herbicidal effect on Echinochloa crus-galli var. crus-galli: application to foliage, application herbicide amount 320 g/ha
Procedure, shortened: as §1

Alopecurus myosuroides = assay: as above; conditions: for J: herbicidal effect on Alopecurus myosuroides: application to foliage, application herbicide amount 320 g/ha
Procedure, shortened: as §1

Avena fatua = assay: as above; conditions: for I: herbicidal effect on Avena fatua: application to foliage, application herbicide amount 320 g/ha
Procedure, shortened: as §1

Leptochloa chinensis = assay: Test Example 3: herbicidal effect by application to foliage (Wagner pot, water depth 0.1-0.5 cm); conditions: Nineteenth Table; application to foliage; application herbicide amount 320 g/ha
Procedure, shortened: (§2)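 Scores (0–5) reflect herbicidal ratio three weeks after a foliar spray: 0 is 5% or less, 5 is 90% or more. Plants had grown 14 days in alluvial soil pots in a 25–30 °C greenhouse before treatment with water-diluted emulsion at a set g/ha.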

Cyperus difformis = assay: as above; conditions: Nineteenth Table; application to foliage; application herbicide amount 320 g/ha
Procedure, shortened: as §2

[2] = tested on: Echinochloa crus-galli var. crus-galli; assay: as above; conditions: Nineteenth Table; application to foliage; application herbicide amount 320 g/ha
Procedure, shortened: as §2

Triticum aestivum = assay: Test Example 4: effect on crop by application to foliage (diluvial soil, plastic box); conditions: for e: effect on crop, Triticum aestivum: application to foliage, application herbicide amount 320 g/ha
Procedure, shortened: as §1

Glycine max = assay: as above; conditions: for d: effect on crop, Glycine max: application to foliage, application herbicide amount 320 g/ha
Procedure, shortened: as §1

[3] = tested on: directly sowed Oryza sativa; assay: as above; conditions: for b: effect on crop, directly sowed Oryza sativa: application to foliage, application herbicide amount 320 g/ha
Procedure, shortened: as §1

Brassica campestris L. = assay: as above; conditions: for g: effect on crop, Brassica campestris L.: application to foliage, application herbicide amount 320 g/ha
Procedure, shortened: as §1

[4] = tested on: Beta vulgaris ssp. vulgaris; assay: as above; conditions: for f: effect on crop, Beta vulgaris ssp. vulgaris: application to foliage, application herbicide amount 320 g/ha
Procedure, shortened: as §1

Zea mays = assay: as above; conditions: for c: effect on crop, Zea mays: application to foliage, application herbicide amount 320 g/ha
Procedure, shortened: as §1

Row | Compound | D (herbicidal effect grade) (Leptochloa chinensis) | E (herbicidal effect grade) (Cyperus difformis) | H (herbicidal effect grade) [2] | R: herbicidal effect on Veronica persica (Veronica persica) | P: herbicidal effect on Stellaria media (Stellaria media) | G: herbicidal effect on Setaria viridis (Setaria viridis) | K: herbicidal effect on Lolium multiflorum Lam. (Lolium multiflorum Lam.) | F: herbicidal effect on Digitaria ciliaris (Digitaria ciliaris) | M: herbicidal effect on Abutilon theophrasti (Abutilon theophrasti) | O: herbicidal effect on Chenopodium album (Chenopodium album) | L: herbicidal effect on Apera spica-venti. (Apera spica-venti.) | Q: herbicidal effect on Galium spurium (Galium spurium) | N: herbicidal effect on Amaranthus retroflexus (Amaranthus retroflexus) | H: herbicidal effect on Echinochloa crus-galli var. crus-galli [1] | J: herbicidal effect on Alopecurus myosuroides (Alopecurus myosuroides) | I: herbicidal effect on Avena fatua (Avena fatua) | e: effect on crop, Triticum aestivum (Triticum aestivum) | d: effect on crop, Glycine max (Glycine max) | b: effect on crop, directly sowed Oryza sativa [3] | g: effect on crop, Brassica campestris L. (Brassica campestris L.) | other results
1 | Cn1nnnc1NC(=O)c1ccc(C(F)(F)F)n2c(CS(C)(=O)=O)nnc12 [2-034] | 5 (Herbicidal ratio of 90% or more (almost completely withered)) | 5 (Herbicidal ratio of 90% or more (almost completely withered)) | 5 (Herbicidal ratio of 90% or more (almost completely withered)) |  |  |  |  |  |  |  |  |  |  |  |  |  |  |  |  |  | R (Veronica persica) herbicidal effect grade (Veronica persica; foliage application, 320 g/ha): 5 (Herbicidal ratio of 90% or more (almost completely withered)); P (Stellaria media) herbicidal effect grade (Stellaria media; foliage application, 320 g/ha): 5 (Herbicidal ratio of 90% or more (almost completely withered)); G (Setaria viridis) herbicidal effect grade (Setaria viridis; foliage application, 320 g/ha): 5 (Herbicidal ratio of 90% or more (almost completely withered)); K (Lolium multiflorum Lam.) herbicidal effect grade (Lolium multiflorum Lam.; foliage application, 320 g/ha): 5 (Herbicidal ratio of 90% or more (almost completely withered)); F (Digitaria ciliaris) herbicidal effect grade (Digitaria ciliaris; foliage application, 320 g/ha): 5 (Herbicidal ratio of 90% or more (almost completely withered)); M (Abutilon theophrasti) herbicidal effect grade (Abutilon theophrasti; foliage application, 320 g/ha): 5 (Herbicidal ratio of 90% or more (almost completely withered)); O (Chenopodium album) herbicidal effect grade (Chenopodium album; foliage application, 320 g/ha): 5 (Herbicidal ratio of 90% or more (almost completely withered)); L (Apera spica-venti.) herbicidal effect grade (Apera spica-venti.; foliage application, 320 g/ha): 5 (Herbicidal ratio of 90% or more (almost completely withered)); Q (Galium spurium) herbicidal effect grade (Galium spurium; foliage application, 320 g/ha): 5 (Herbicidal ratio of 90% or more (almost completely withered)); N (Amaranthus retroflexus) herbicidal effect grade (Amaranthus retroflexus; foliage application, 320 g/ha): 5 (Herbicidal ratio of 90% or more (almost completely withered)); H (Echinochloa crus-galli var. crus-galli) herbicidal effect grade ([1]; foliage application, 320 g/ha): 5 (Herbicidal ratio of 90% or more (almost completely withered)); J (Alopecurus myosuroides) herbicidal effect grade (Alopecurus myosuroides; foliage application, 320 g/ha): 5 (Herbicidal ratio of 90% or more (almost completely withered)); I (Avena fatua) herbicidal effect grade (Avena fatua; foliage application, 320 g/ha): 5 (Herbicidal ratio of 90% or more (almost completely withered)); e (Triticum aestivum) effect on crop grade (Triticum aestivum; foliage application, 320 g/ha): 5 (Herbicidal ratio of 90% or more (almost completely withered)); c (Glycine max) effect on crop grade (Glycine max; foliage application, 320 g/ha): 3 (Herbicidal ratio of 40% or more and less than 70%); d (directly sowed Oryza sativa) effect on crop grade ([3]; foliage application, 320 g/ha): 5 (Herbicidal ratio of 90% or more (almost completely withered)); g (Brassica campestris L.) effect on crop grade (Brassica campestris L.; foliage application, 320 g/ha): 5 (Herbicidal ratio of 90% or more (almost completely withered)); f (Beta vulgaris ssp. vulgaris) effect on crop grade ([4]; foliage application, 320 g/ha): 5 (Herbicidal ratio of 90% or more (almost completely withered)); b (Zea mays) effect on crop grade (Zea mays; foliage application, 320 g/ha): 5 (Herbicidal ratio of 90% or more (almost completely withered))
2 | Cn1nnnc1NC(=O)c1ccc(C(F)(F)F)n2cnnc12 [2-001] | 4 (Herbicidal ratio of 70% or more and less than 90%) | 3 (Herbicidal ratio of 40% or more and less than 70%) | 4 (Herbicidal ratio of 70% or more and less than 90%) | 5 (Herbicidal ratio of 90% or more (almost completely withered)) | 5 (Herbicidal ratio of 90% or more (almost completely withered)) | 0 (Herbicidal ratio of 5% or less (almost no effect)) | 1 (Herbicidal ratio of 5% or more and less than 20%) | 3 (Herbicidal ratio of 40% or more and less than 70%) | 5 (Herbicidal ratio of 90% or more (almost completely withered)) | 5 (Herbicidal ratio of 90% or more (almost completely withered)) | 0 (Herbicidal ratio of 5% or less (almost no effect)) | 4 (Herbicidal ratio of 70% or more and less than 90%) | 5 (Herbicidal ratio of 90% or more (almost completely withered)) | 4 (Herbicidal ratio of 70% or more and less than 90%) | 0 (Herbicidal ratio of 5% or less (almost no effect)) | 1 (Herbicidal ratio of 5% or more and less than 20%) | 0 (Herbicidal ratio of 5% or less (almost no effect)) | 2 (Herbicidal ratio of 20% or more and less than 40%) | 0 (Herbicidal ratio of 5% or less (almost no effect)) | 4 (Herbicidal ratio of 70% or more and less than 90%) | f: effect on crop, Beta vulgaris ssp. vulgaris [4]: 5 (Herbicidal ratio of 90% or more (almost completely withered)); c: effect on crop, Zea mays (Zea mays): 0 (Herbicidal ratio of 5% or less (almost no effect))
3 | Cc1nnc2c(C(=O)Nc3nnnn3C)ccc(C(F)(F)F)n12 [2-002] | 4 (Herbicidal ratio of 70% or more and less than 90%) | 2 (Herbicidal ratio of 20% or more and less than 40%) | 5 (Herbicidal ratio of 90% or more (almost completely withered)) | 5 (Herbicidal ratio of 90% or more (almost completely withered)) | 5 (Herbicidal ratio of 90% or more (almost completely withered)) | 3 (Herbicidal ratio of 40% or more and less than 70%) | 1 (Herbicidal ratio of 5% or more and less than 20%) | 4 (Herbicidal ratio of 70% or more and less than 90%) | 5 (Herbicidal ratio of 90% or more (almost completely withered)) | 5 (Herbicidal ratio of 90% or more (almost completely withered)) | 1 (Herbicidal ratio of 5% or more and less than 20%) | 4 (Herbicidal ratio of 70% or more and less than 90%) | 5 (Herbicidal ratio of 90% or more (almost completely withered)) | 5 (Herbicidal ratio of 90% or more (almost completely withered)) | 1 (Herbicidal ratio of 5% or more and less than 20%) | 3 (Herbicidal ratio of 40% or more and less than 70%) | 1 (Herbicidal ratio of 5% or more and less than 20%) | 3 (Herbicidal ratio of 40% or more and less than 70%) | 2 (Herbicidal ratio of 20% or more and less than 40%) | 4 (Herbicidal ratio of 70% or more and less than 90%) | f: effect on crop, Beta vulgaris ssp. vulgaris [4]: 5 (Herbicidal ratio of 90% or more (almost completely withered)); c: effect on crop, Zea mays (Zea mays): 0 (Herbicidal ratio of 5% or less (almost no effect))
